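These data come from cells grown in 96-well plates and exposed to compound for 48 hours at five concentrations. Here, GI50 denotes the concentration required for 50% inhibition of growth. TGI marks complete inhibition of growth.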 A value given as a limit tells only on which side of the number the result lay.

Assay in all cases: growth of human tumour cells (NCI), 48 h
Experiment [1] relates to CCRF-CEM leukemia.
The subject of experiment [2] is EKVX NSCLC.
The test system of experiment [3] is NCI-H522 lung.
Experiment [4] has as its system OVCAR-3 ovarian.
Experiment [5] deals with OVCAR-5 ovarian.
The test system of experiment [6] is OVCAR-8 ovarian.
For experiment [7], the system named is SK-MEL-2 melanoma.
The subject of experiment [8] is UACC-62 melanoma.
Experiment [9] has as its system UO-31 renal.
Experiment [10] has as its system COLO 205 colon.

Regarding `CC1(C(=O)O)CCCC1C(=O)O` (stereo not given), the TGI in [1], in [2], in experiment [3], in [4], in experiment [5] and in experiment [6] was greater than 100 µM throughout. Also, the TGI in [7], in experiment [8] and in experiment [9] was greater than 100 µM in each case.

`N#Cc1c(-c2ccc(F)cc2)nc(N/N=C/c2c[nH]c3ccccc23)nc1N1CCOCC1`: the GI50 is 3.43 µM in experiment [1]; 2.37 µM in [10]; 5.44 µM in experiment [2]; 2.59 µM in [3]; 11.5 µM in experiment [4]; 19.5 µM in experiment [5]. For the same compound, the GI50 was 7.63 µM in experiment [6], 3.5 µM in [7], 11.4 µM in experiment [8] and 1.76 µM in experiment [9]. Moreover, the TGI in [1] is greater than 100 µM; in [10], 18.2 µM; in experiment [2], 86.9 µM; in experiment [3], 7.15 µM; in experiment [4], 35 µM; in [5], 74 µM. Also, the TGI in [6] came to 93.8 µM; in experiment [7] it was 17.7 µM; in [8], 27.4 µM; in [9], 55.2 µM.

`CCN1CCC(O)(C(C(=O)O)c2ccccc2)CC1` (stereo not given): the TGI in experiment [1], in experiment [10], in [2], in [3], in [4] and in experiment [5] was greater than 100 µM throughout. Besides, the TGI in experiment [6], in experiment [7], in experiment [8] and in experiment [9] was greater than 100 µM each time.

`COc1c(Br)cc(CC(N)=O)c(O)c1Br`: the TGI in experiment [1], in [10], in experiment [2], in experiment [3], in [4] and in [5] was greater than 100 µM each time. In addition, the TGI in experiment [6], in experiment [7], in experiment [8] and in experiment [9] was greater than 100 µM each time.

Take `OC1(c2ccc(Cl)cc2)c2ccc3ccccc3c2C2=N[C@H]3CCCC[C@@H]3N21` (stereo not given in full): the TGI in experiment [1] was 79.9 µM; in experiment [10], greater than 100 µM; in experiment [2], 24 µM; in experiment [3], greater than 100 µM; in [4], 21.9 µM; in [5], 57.2 µM. For the same compound, the TGI in experiment [6] is 3.45 µM; in experiment [7] it was greater than 100 µM; in experiment [8], 41.4 µM; in experiment [9], greater than 100 µM.

As to `CCC(C(=O)c1ccc(OC)c(OC)c1)N(C(=O)C(F)(F)F)C(C)c1ccccc1` (stereo not given), the TGI in experiment [1], in [10], in experiment [2], in experiment [3], in experiment [4] and in experiment [5] was greater than 100 µM each time. The TGI in experiment [6], in [8] and in [9] was greater than 100 µM in each case.

In the case of `NC(N)=Nc1ncccc1[N+](=O)[O-]`, the TGI in experiment [1] was greater than 100 µM; in experiment [10] it was 57.2 µM; in experiment [3], greater than 100 µM; in experiment [4], 66.5 µM; in [5] it was greater than 100 µM; in experiment [6] it was greater than 100 µM. The TGI in experiment [7], in experiment [8] and in experiment [9] was greater than 100 µM in each case.

As for `COc1cc(/C=C\C(=O)O)ccc1OCc1ccccc1`, the TGI in experiment [1], in experiment [10], in [2], in experiment [3], in experiment [4] and in experiment [5] was greater than 100 µM in each case. The TGI in experiment [6], in experiment [7], in experiment [8] and in [9] was greater than 100 µM each time.

Consider `O=c1oc2cc(O)ccc2c(O)c1C(c1ccc(C(c2c(O)c3ccc(O)cc3oc2=O)c2c(O)c3ccc(O)cc3oc2=O)cc1)c1c(O)c2ccc(O)cc2oc1=O`, for which the TGI in experiment [1], in experiment [10], in [2], in [4], in experiment [5] and in experiment [6] was greater than 100 µM in each case. Moreover, the TGI in experiment [7], in experiment [8] and in [9] was greater than 100 µM each time.

Regarding `O=C(N/N=C/c1cc(Br)cc(Br)c1[O-])c1ccccc1O.O=C(N/N=C/c1cc(Br)cc(Br)c1[O-])c1ccccc1O.[Fe+2]`, the TGI in experiment [1] amounted to 24.9 µM; in experiment [10], 35.8 µM; in [2], 50.3 µM; in [3], 11.4 µM; in experiment [4], 25.8 µM; in experiment [5], 15.8 µM. The TGI came out at 36.1 µM in experiment [6], 21.4 µM in [7], 10.5 µM in experiment [8] and 25.3 µM in experiment [9].

`O=C(CC1=NCCN1)c1ccccc1`: the TGI in experiment [1] was greater than 511 µM; in experiment [10], greater than 750 µM; in experiment [2], greater than 750 µM; in experiment [3] it was greater than 750 µM; in experiment [4], greater than 750 µM; in experiment [5], greater than 750 µM. Further, the TGI in experiment [6], in experiment [7], in experiment [8] and in experiment [9] was greater than 750 µM in each case.

Consider `O=C1C(Cl)N(c2ccccc2[N+](=O)[O-])C1c1c[nH]c2ccccc12` (stereo not given), for which the TGI in experiment [1] was greater than 100 µM; in [10], greater than 100 µM; in experiment [2], greater than 100 µM; in [3] it was greater than 100 µM; in experiment [4], greater than 100 µM; in experiment [5], 54.8 µM. Further, the TGI in experiment [6], in experiment [7], in [8] and in experiment [9] was greater than 100 µM each time.

`O=C(Nc1cccc(O)c1)C(=O)C(C(=O)c1ccccc1F)C1OC(=O)c2ccccc21` (stereo not given): the TGI was 68.5 µM in experiment [1]; 48.3 µM in [10]; greater than 100 µM in experiment [2]; 63.9 µM in experiment [3]; greater than 100 µM in [5]; 30.5 µM in [6]. Besides, the TGI in experiment [7] turned out to be 62.2 µM; in experiment [8], 37.8 µM; in [9], 96.8 µM.

Values taken from PubChem BioAssay (NCI).
